Paper PMC9449670, “Two types of peptides derived from the neurotoxin GsMTx4 inhibit a mechanosensitive potassium channel by modifying the mechanogate” (The Journal of Biological Chemistry, 2022)
Bridges are numbered along the chain shown (N, C = ends). Where no end group is shown, it is not given here.

Experiments:
[1] = system: STREX-del mutant channel (SAKcaC with STREX-exon removed); conditions: earlier work of the authors; cited from earlier work
Description: We next examined whether the two types of peptides function on the mechano-insensitive mutant channel. We have previously identified a mechano-insensitive-mutant (STREX-del) channel, of which the mechanosensor domain (STREX-exon) in SAKcaC was removed ([37], [38]). […] To investigate whether the synthetic short peptides act similarly to GsMTx4, we performed the same experiments to examine the effects of the two types of sh ...

[2] = target: T1, stretch-activated BK channel (SAKcaC, SAKca-WT) (Gallus gallus, UniProt Q8AYS8); experiment: Single-channel excised inside-out patch clamp of native SAKcaC from ventricular myocytes, peptide backfilled in the pipette; type: cell-based, chick; conditions: for slope factor K^−1 of Po–V relationship (Boltzmann fit): control (no peptide) 25.1 ±1.16; for slope factor K^−1 of Po–V relationship (Boltzmann fit) / V1/2 of Po–V relationship (Boltzmann fit) / channel open probability Po with 50 nM peptide / channel open probability Po with 100 nM peptide / channel open probability Po with 0 nM peptide (control of the dose series) / Hill cofactor of dose–response curve: ventricular myocytes; for V1/2 of Po–V relationship (Boltzmann fit): control (no peptide) −91.5 ± 1.36 mV, n = 6 to 9; for channel open probability Po with 50 nM peptide / channel open probability Po with 100 nM peptide: 25 min following backfilling; for channel open probability Po with 50 nM peptide / channel open probability Po with 100 nM peptide / channel open probability Po with 0 nM peptide (control of the dose series): [Ca2+]i 1 mM, single sample patch
T1 construct: Native SAKcaCs were recorded from ventricular myocytes; endogenous in cells; host or cells: isolated chick ventricular myocytes
Protocol: Native SAKcaCs were recorded from ventricular myocytes, which were isolated from chick hearts as described previously ([12], [13], [37]).
(§1) Single-channel currents for SAKcaC were recorded under the standard excised inside–out patch configuration. Currents were amplified using an A&M amplifier (Model 2400) or an EPC10 patch-clamp amplifier (HEKA Elektronik). Data were filtered at 10 kHz. The standard pipette solution facing the extracellular surface of the patch contained (in millimolar): 145 potassium gluconate, 1 EGTA, 10 Hepes, and 5 glucose, pH 7.4 was adjusted with NaOH. The bath solution facing the cytoplasmic surface of the patch membrane was the same except the [Ca^2+]i concentration used was 1 mM ([13], [38]).
(§2) In brief, the normal pipette solution was first filled in the tips of the electrodes, and then the same solution containing the peptide was backfilled. […] All experiments were performed with standard inside–out patch configuration at room temperature (22–25 °C).
(§3) Single-channel conductances of SAKcaC and the STREX-del mutant channel were determined by the slope of current–voltage (I–V) curves, where I–V data could be well fitted with a linear function ([12], [54]). Amplitude histograms were measured in inside–out patches mostly with one to three channels. Histograms were fitted with a Gaussian function using pClampfit software (Molecular Devices Corp.). In the case when only one channel was contained in patches, channel open probability Po (%) was determined simply by driving the total open duration of the sum of the open and closed times in patches as described previously ([51], [55]). When multiple channels were presented in the patch, Po was determined using the area under each peak (aj) at each current level (j) in the histogram along with the number of channels (N):(1) Po=∑j=0n(j∗aj)/n×∑j=0Naj Where N is the channel number in each patch, which was defined from the maximum level observed at a relatively higher voltage of +80 mV under 1 mM [Ca^2+]i.

[3] = target: T2, stretch-activated BK channel (SAKcaC) (Gallus gallus, UniProt Q8AYS8); experiment: Single-channel excised inside-out patch clamp of SAKcaC expressed in CHO-K1 cells, peptide backfilled in the pipette (extracellular side); type: cell-based, chick; conditions: Vm −80 mV, [Ca2+]i 1 mM
T2 construct: expressed in transfected cells; host or cells: CHO-K1, transient transfection of pcDNA 3.1 with Lipofectamine 2000; pEGFP co-expressed as a separate marker
Description: (§4) The SA BK (SAKca) channel (SAKcaC) gene was cloned from the complementary DNA (cDNA) library (GenBank accession number: AB072618) from chick embryonic hearts ([13]); this was further subcloned into mammalian expression vectors (pcDNA 3.1). SAKca STREX (stress axis–regulated exon) deletion mutation (STREX-Del) was verified by sequencing as published previously ([35], [51]). Cloned SAKcaC (SAKca-WT) or STREX-Del mutant cDNAs were transiently transfected in the CHO-K1 cells using the Lipofectamine 2000 Transfection Reagent (Thermo Fisher Scientific) according to the manufacturer’s protocol. To monitor the successfully transfected cells, pEGFP (Clontech Laboratories) was coexpressed with the SAKca-WT or STREX-Del channel cDNA (5:1, w/w). The transfected cells grown on the coverslip were used for patch-clamp recordings. No endogenous BK channel activity was detected in the untransfected CHO-K1 cells. Currents were normally recorded within 1 week after cDNA transfection ([13], [37], [38]).
as §1, §2
as §3, with “Histograms were fitted with a Gaussian function using pClampfit software (Molecular Devices Corp.).” left out

[4] = system: STREX-del mutant channel (SAKcaC with STREX-exon removed); experiment: Single-channel inside-out patch clamp of mechano-insensitive STREX-del mutant channel expressed in CHO cells; type: cell-based, chick
Description: as §4
Single-channel currents for SAKcaC were recorded under the standard excised inside–out patch configuration. […]
as §3, with “Histograms were fitted with a Gaussian function using pClampfit software (Molecular Devices Corp.).” left out

BK (mSlo1) channel = experiment: Macroscopic currents of regular BK (mSlo1) channel in excised inside-out patches from Xenopus laevis oocytes; type: cell-based, mouse; conditions: 10 μM peptide backfilled, 25 min, [Ca2+]i 100 μM, n = 4-6
Protocol: Macroscopic currents for regular BK (mSlo1) channels were recorded from Xenopus laevis oocytes by using standard excised inside–out patches. mSlo1 cDNA was a gift from the laboratory of Dr Christopher Lingle (Washington University), of which the vector pXMX was designed to promote […] expression ([12], [36], [52]). pClamp (Molecular Devices) was used to drive stimulus protocols and digitize currents as described previously ([51], [53]). The standard pipette (extracellular) solution contains (in millimolar): 140 KMES (methanesulfonate), 20 KOH, 10 Hepes, 2 MgCl2, and pH 7.0. The internal solution contains (in millimolar) 140 KMES, 20 KOH, 10 Hepes, 5 EGTA, and pH 7.0. The free intracellular [Ca^2+]i solution was buffered as described previously ([36], [52]).
as §2

T2 sequence (Q8AYS8 1-1195 isoform Q8AYS8-3): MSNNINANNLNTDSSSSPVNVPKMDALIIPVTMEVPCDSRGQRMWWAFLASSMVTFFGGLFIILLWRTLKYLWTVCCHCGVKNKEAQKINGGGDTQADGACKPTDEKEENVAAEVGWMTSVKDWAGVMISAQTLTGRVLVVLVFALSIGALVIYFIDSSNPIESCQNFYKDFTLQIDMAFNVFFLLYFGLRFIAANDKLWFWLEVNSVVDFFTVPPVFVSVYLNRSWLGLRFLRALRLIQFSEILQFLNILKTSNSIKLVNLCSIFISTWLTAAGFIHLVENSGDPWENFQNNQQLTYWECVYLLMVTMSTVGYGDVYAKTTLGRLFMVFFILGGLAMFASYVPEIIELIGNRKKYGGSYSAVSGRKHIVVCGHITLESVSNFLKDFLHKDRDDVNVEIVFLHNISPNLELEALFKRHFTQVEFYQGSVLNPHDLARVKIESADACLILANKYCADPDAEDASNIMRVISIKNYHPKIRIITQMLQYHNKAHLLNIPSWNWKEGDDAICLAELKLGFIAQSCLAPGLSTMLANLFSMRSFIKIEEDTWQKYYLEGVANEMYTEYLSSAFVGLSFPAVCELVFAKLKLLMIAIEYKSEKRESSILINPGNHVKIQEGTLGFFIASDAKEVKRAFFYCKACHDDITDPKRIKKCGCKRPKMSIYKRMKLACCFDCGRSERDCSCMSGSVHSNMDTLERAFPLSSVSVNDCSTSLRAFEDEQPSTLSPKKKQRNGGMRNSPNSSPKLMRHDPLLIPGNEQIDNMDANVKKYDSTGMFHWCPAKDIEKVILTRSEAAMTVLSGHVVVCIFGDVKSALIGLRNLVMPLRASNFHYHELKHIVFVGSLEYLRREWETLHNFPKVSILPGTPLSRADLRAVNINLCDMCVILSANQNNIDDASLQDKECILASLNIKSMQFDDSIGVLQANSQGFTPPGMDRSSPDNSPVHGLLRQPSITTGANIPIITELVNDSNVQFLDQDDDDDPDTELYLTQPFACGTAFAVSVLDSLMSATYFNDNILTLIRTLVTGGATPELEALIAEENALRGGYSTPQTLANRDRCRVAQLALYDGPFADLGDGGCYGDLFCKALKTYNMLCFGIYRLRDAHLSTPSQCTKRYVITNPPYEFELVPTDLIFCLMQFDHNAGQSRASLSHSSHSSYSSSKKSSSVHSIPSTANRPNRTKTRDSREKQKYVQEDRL
T1 sequence (Q8AYS8 1-1195 isoform Q8AYS8-3): as above

Row | Substance | effect on STREX-del channel, in words [1] | slope factor K^−1 of Po–V relationship (Boltzmann fit) ([2]; 50 nM peptide) | V1/2 of Po–V relationship (Boltzmann fit) ([2]; 50 nM peptide) [mV] | channel open probability Po with 50 nM peptide ([2]; Vm −50 mV) [%] | channel open probability Po with 100 nM peptide ([2]; Vm −50 mV) [%] | channel open probability Po with 0 nM peptide (control of the dose series) ([2]; Vm −50 mV) [%] | Hill cofactor of dose–response curve ([2]; Vm −50 mV) | inhibitory effect on SAKcaC, in words ([3]; 5 μM peptide backfilled) | averaged diffusion/inhibitory rate (τ), single-exponential fit of Po time course ([3]; 5 μM peptide, mean ± SEM, at least four experiments, SEM) [min] | channel open probability Po at 16 min following backfilling ([3]; 5 μM peptide, single sample patch) [%] | channel open probability Po before peptide reaches the membrane (0 peptide, 2 min after backfilling) ([3]; baseline of the same patch, 5 μM peptide backfilled, 22–25 °C, single sample patch) [%] | inhibition of SAKcaC Po at +30 mV ([2]; 50 nM peptide, Vm +30 mV) [%] | inhibition of SAKcaC Po at −50 mV ([2]; 50 nM peptide, Vm −50 mV) [%] | inhibition of SAKcaC at depolarized condition, in words ([2]; 10 μM peptide, Vm +30 mV) | effect on STREX-del mutant channel, in words ([4]; 10 μM peptide backfilled, −60 mV (Pept 02 also +30 mV), up to 25–30 min) | V1/2 of Po–V relationship of STREX-del (Boltzmann fit) ([4]; 10 μM peptide, Po 25 min following backfilling, control (no peptide) −9.2 ± 2.3 mV, n = 4 to 9) [mV] | slope factor K^−1 of Po–V relationship of STREX-del ([4]; 10 μM peptide, control (no peptide) 23.3 ± 2.8) | effect on regular BK (mSlo1) channel, in words (BK (mSlo1) channel)
1 | GsMTx4 (GCLEFWWKCNPNDDKCCRPKLKCSKLFKLCNFSF; disulfide (positions not given here); ends not checked; UniProt Q7YT39 47-80, looked up) [reference compound] | without effect | 24.5 ± 1.63 | −47.2 ± 0.97 | 47.1 | 13.8 | 73.6 | 1.6 ± 0.47 | – | – | – | – | – | – | – | – | – | – | –
2 | WKCNPNDDKC (disulfide 3-10 (inferred)) [Pept 02, 10-residue type II peptide derived from loop2 of GsMTx4] | – | 22.9 ± 1.11 | −23.7 ± 1.06 | 22.1 | 6.8 | 72.5 | 1.8 ± 0.52 | enhanced inhibition (%) | 2.89 ± 0.16 | 3.6 | 42.9 | ~10.3 | ~71.3 | completely inhibited | not significantly altered | −5.7 ± 2.6 | 22.5 ± 2.1 | failed to inhibit
